The values below come from patent publication US10167262B2, “Herbicidal substituted 3-arylpyrazoles” (FMC CORPORATION, priority 2014, dated 2019).

Common to all, as to test: Test A pre-/postemergence greenhouse herbicide test, visual injury rating 0-100
Format in all cases: in vivo

One assay concerns corn (Zea mays). The text has this: (§1) Seeds of plant species selected from barnyardgrass (Echinochloa crus-galli), large (Lg) crabgrass (Digitaria sanguinalis), giant foxtail (Setaria faberii), morningglory (Ipomoea spp.), pigweed (Amaranthus retroflexus), velvetleaf (Abutilon theophrasti), wheat (Triticum aestivum), and corn (Zea mays) were planted into a blend of loam soil and sand and treated preemergence with a directed soil spray using test chemicals formulated in a non-phytotoxic solvent mixture which included a surfactant. At the same time these species were also treated with postemergence applications of test chemicals formulated in the same manner. Plants ranged in height from 2 to 10 cm and were in the one- to two-leaf stage for the postemergence treatment. Treated plants and untreated controls were maintained in a greenhouse for approximately 10 days, after which time all treated plants were compared to untreated controls and visually evaluated for injury. Plant response ratings, summarized in Table A, are based on a 0 to 100 scale where 0 is no effect and 100 is complete control. A dash (-) response means no test result.

Assay [1] deals with wheat (Triticum aestivum).
Excerpt: as §1

Assay [2] concerns giant foxtail (Setaria faberii).
Excerpt: as §1

The subject of assay [3] is morningglory (Ipomoea spp.).
Excerpt: as §1

Assay [4] deals with large (Lg) crabgrass (Digitaria sanguinalis).
Excerpt: as §1

The subject of assay [5] is barnyardgrass (Echinochloa crus-galli).
Excerpt: as §1

Assay [6] deals with velvetleaf (Abutilon theophrasti).
Excerpt: as §1

The test system of assay [7] is pigweed (Amaranthus retroflexus).
Excerpt: as §1

With `O=C(c1ccccc1)c1cn(CC(F)F)nc1-c1cc(Cl)cc(Cl)c1` [Compound 59], the “Plant response rating (0 to 100 scale), Corn” value is listed as 0 in the assay with corn (Zea mays) (Postemergence, 125 g ai/ha); 0 in the assay with corn (Zea mays) (Postemergence, 500 g ai/ha); 0 in the assay with corn (Zea mays) (Preemergence, 500 g ai/ha). Further, in the assay with corn (Zea mays) (Preemergence, 125 g ai/ha), the “Corn plant response rating (0 = no effect, 100 = complete control)” value came out at 0. In addition, the “Plant response rating (0 to 100 scale), Wheat” value in assay [1] (Postemergence, 125 g ai/ha) is 0; in assay [1] (Postemergence, 500 g ai/ha), 0. Also, in assay [1] (Preemergence, 125 g ai/ha), the “Wheat plant response rating (0 = no effect, 100 = complete control)” value amounted to 0. The “Plant response rating (0 to 100 scale), Foxtail, Giant” value is 0 in assay [2] (Postemergence, 125 g ai/ha); 0 in assay [2] (Postemergence, 500 g ai/ha); 0 in assay [2] (Preemergence, 500 g ai/ha). Besides, in assay [2] (Preemergence, 125 g ai/ha), the “Foxtail, Giant plant response rating (0 = no effect, 100 = complete control)” value is on record as 0. The “Plant response rating (0 to 100 scale), Morningglory” value was 0 in assay [3] (Postemergence, 125 g ai/ha); 0 in assay [3] (Postemergence, 500 g ai/ha); 0 in assay [3] (Preemergence, 500 g ai/ha). Moreover, the “Morningglory plant response rating (0 = no effect, 100 = complete control)” value in assay [3] (Preemergence, 125 g ai/ha) is given as 0. The “Plant response rating (0 to 100 scale), Crabgrass, Large” value in assay [4] (Postemergence, 125 g ai/ha) is 0; in assay [4] (Postemergence, 500 g ai/ha), 0; in assay [4] (Preemergence, 500 g ai/ha), 0. Also, the “Crabgrass, Large plant response rating (0 = no effect, 100 = complete control)” value in assay [4] (Preemergence, 125 g ai/ha) was 0. The “Plant response rating (0 to 100 scale), Barnyardgrass” value was 0 in assay [5] (Postemergence, 125 g ai/ha); 0 in assay [5] (Postemergence, 500 g ai/ha); 0 in assay [5] (Preemergence, 500 g ai/ha). The “Barnyardgrass plant response rating (0 = no effect, 100 = complete control)” value in assay [5] (Preemergence, 125 g ai/ha) is recorded as 0. Moreover, the “Plant response rating (0 to 100 scale), Velvetleaf” value is 50 in assay [6] (Postemergence, 125 g ai/ha); 70 in assay [6] (Postemergence, 500 g ai/ha); 40 in assay [6] (Preemergence, 500 g ai/ha). Further, in assay [6] (Preemergence, 125 g ai/ha), the “Velvetleaf plant response rating (0 = no effect, 100 = complete control)” value is reported as 0. For the same compound, the “Plant response rating (0 to 100 scale), Pigweed” value in assay [7] (Postemergence, 125 g ai/ha) came to 60; in assay [7] (Postemergence, 500 g ai/ha), 80; in assay [7] (Preemergence, 500 g ai/ha) it was 30. Also, in assay [7] (Preemergence, 125 g ai/ha), the “Pigweed plant response rating (0 = no effect, 100 = complete control)” value turned out to be 0.
With `O=C(c1ccccc1)c1cn(CC(F)F)nc1-c1cc(F)cc(Cl)c1` [Compound 40], the “Plant response rating (0 to 100 scale), Corn” value in the assay with corn (Zea mays) (Postemergence, 1000 g ai/ha) is 0; in the assay with corn (Zea mays) (Preemergence, 1000 g ai/ha), 0. For the same compound, the “Plant response rating (0 to 100 scale), Wheat” value in assay [1] (Postemergence, 1000 g ai/ha) is on record as 0; in assay [1] (Preemergence, 1000 g ai/ha), 0. For the same compound, the “Plant response rating (0 to 100 scale), Foxtail, Giant” value in assay [2] (Postemergence, 1000 g ai/ha) came to 0; in assay [2] (Preemergence, 1000 g ai/ha), 0. Moreover, the “Plant response rating (0 to 100 scale), Morningglory” value is 0 in assay [3] (Postemergence, 1000 g ai/ha) and 0 in assay [3] (Preemergence, 1000 g ai/ha). Besides, the “Plant response rating (0 to 100 scale), Crabgrass, Large” value in assay [4] (Postemergence, 1000 g ai/ha) was found to be 0; in assay [4] (Preemergence, 1000 g ai/ha), 0. Besides, the “Plant response rating (0 to 100 scale), Barnyardgrass” value in assay [5] (Postemergence, 1000 g ai/ha) came to 0; in assay [5] (Preemergence, 1000 g ai/ha), 0. The “Plant response rating (0 to 100 scale), Velvetleaf” value stood at 0 in assay [6] (Postemergence, 1000 g ai/ha) and 0 in assay [6] (Preemergence, 1000 g ai/ha). The “Plant response rating (0 to 100 scale), Pigweed” value was 40 in assay [7] (Postemergence, 1000 g ai/ha) and 0 in assay [7] (Preemergence, 1000 g ai/ha).
As for `ON=C(c1ccccc1)c1c[nH]nc1-c1cc(Br)cc(Br)c1` [Compound 49], the “Plant response rating (0 to 100 scale), Corn” value in the assay with corn (Zea mays) (Postemergence, 1000 g ai/ha) is 0; in the assay with corn (Zea mays) (Preemergence, 1000 g ai/ha) it was 0. In addition, the “Plant response rating (0 to 100 scale), Wheat” value was determined as 0 in assay [1] (Postemergence, 1000 g ai/ha) and 0 in assay [1] (Preemergence, 1000 g ai/ha). The “Plant response rating (0 to 100 scale), Foxtail, Giant” value in assay [2] (Postemergence, 1000 g ai/ha) was 0; in assay [2] (Preemergence, 1000 g ai/ha), 10. Further, the “Plant response rating (0 to 100 scale), Morningglory” value in assay [3] (Postemergence, 1000 g ai/ha) came out at 0; in assay [3] (Preemergence, 1000 g ai/ha) it was 0. Also, the “Plant response rating (0 to 100 scale), Crabgrass, Large” value in assay [4] (Postemergence, 1000 g ai/ha) is on record as 0; in assay [4] (Preemergence, 1000 g ai/ha) it was 0. Moreover, the “Plant response rating (0 to 100 scale), Barnyardgrass” value in assay [5] (Postemergence, 1000 g ai/ha) is recorded as 0; in assay [5] (Preemergence, 1000 g ai/ha), 0. Moreover, the “Plant response rating (0 to 100 scale), Velvetleaf” value amounted to 80 in assay [6] (Postemergence, 1000 g ai/ha) and 0 in assay [6] (Preemergence, 1000 g ai/ha). For the same compound, the “Plant response rating (0 to 100 scale), Pigweed” value in assay [7] (Postemergence, 1000 g ai/ha) is given as 90; in assay [7] (Preemergence, 1000 g ai/ha), 80.
Take `Clc1cc(Cl)cc(-c2n[nH]cc2C2(c3ccccc3)SCCS2)c1` [Compound 69]: the “Plant response rating (0 to 100 scale), Corn” value is 0 in the assay with corn (Zea mays) (Postemergence, 125 g ai/ha); 0 with corn (Zea mays) (Postemergence, 500 g ai/ha); 0 in the assay with corn (Zea mays) (Preemergence, 500 g ai/ha). In addition, in the assay on corn (Zea mays) (Preemergence, 125 g ai/ha), the “Corn plant response rating (0 = no effect, 100 = complete control)” value is 0. Besides, the “Plant response rating (0 to 100 scale), Wheat” value in assay [1] (Postemergence, 125 g ai/ha) was found to be 0; in assay [1] (Postemergence, 500 g ai/ha), 0. Besides, in assay [1] (Preemergence, 125 g ai/ha), the “Wheat plant response rating (0 = no effect, 100 = complete control)” value is on record as 0. For the same compound, the “Plant response rating (0 to 100 scale), Foxtail, Giant” value came to 0 in assay [2] (Postemergence, 125 g ai/ha); 0 in assay [2] (Postemergence, 500 g ai/ha); 0 in assay [2] (Preemergence, 500 g ai/ha). Further, in assay [2] (Preemergence, 125 g ai/ha), the “Foxtail, Giant plant response rating (0 = no effect, 100 = complete control)” value came out at 0. Further, the “Plant response rating (0 to 100 scale), Morningglory” value in assay [3] (Postemergence, 125 g ai/ha) is reported as 0; in assay [3] (Postemergence, 500 g ai/ha), 0; in assay [3] (Preemergence, 500 g ai/ha), 0. For the same compound, the “Morningglory plant response rating (0 = no effect, 100 = complete control)” value in assay [3] (Preemergence, 125 g ai/ha) was determined as 0. Besides, the “Plant response rating (0 to 100 scale), Crabgrass, Large” value in assay [4] (Postemergence, 125 g ai/ha) is 0; in assay [4] (Postemergence, 500 g ai/ha), 0; in assay [4] (Preemergence, 500 g ai/ha), 0. In addition, the “Crabgrass, Large plant response rating (0 = no effect, 100 = complete control)” value in assay [4] (Preemergence, 125 g ai/ha) was determined as 0. Further, the “Plant response rating (0 to 100 scale), Barnyardgrass” value in assay [5] (Postemergence, 125 g ai/ha) was found to be 0; in assay [5] (Postemergence, 500 g ai/ha), 0; in assay [5] (Preemergence, 500 g ai/ha) it was 0. For the same compound, in assay [5] (Preemergence, 125 g ai/ha), the “Barnyardgrass plant response rating (0 = no effect, 100 = complete control)” value turned out to be 0. In addition, the “Plant response rating (0 to 100 scale), Velvetleaf” value in assay [6] (Postemergence, 125 g ai/ha) came out at 20; in assay [6] (Postemergence, 500 g ai/ha) it was 80; in assay [6] (Preemergence, 500 g ai/ha), 20. Besides, the “Velvetleaf plant response rating (0 = no effect, 100 = complete control)” value in assay [6] (Preemergence, 125 g ai/ha) is 0. For the same compound, the “Plant response rating (0 to 100 scale), Pigweed” value in assay [7] (Postemergence, 125 g ai/ha) was determined as 30; in assay [7] (Postemergence, 500 g ai/ha) it was 80; in assay [7] (Preemergence, 500 g ai/ha), 40. The “Pigweed plant response rating (0 = no effect, 100 = complete control)” value in assay [7] (Preemergence, 125 g ai/ha) worked out at 0.
